Source: patent publication US10233186B2, “Inhibitors of activin receptor-like kinase” (BLUEPRINT MEDICINES CORPORATION, priority 2016, dated 2019)

Assays:
human ALK2 R206H = target: T1, human ALK2 R206H (Homo sapiens, UniProt Q04771, R206H); test: Cell-based ALK2-R206H cell activity assay (Smad1-Ser463/Ser465 phosphorylation by AlphaLISA in HEK293-ALK2-R206H cells); settings: read-out: Cell Line (Cell Assay IC50)
T1 construct: expressed in transfected cells; host or cells: HEK293 (ATCC CRL1573), lentivirus transduction, blasticidin selection
T1 sequence (Q04771 21-509 R206H): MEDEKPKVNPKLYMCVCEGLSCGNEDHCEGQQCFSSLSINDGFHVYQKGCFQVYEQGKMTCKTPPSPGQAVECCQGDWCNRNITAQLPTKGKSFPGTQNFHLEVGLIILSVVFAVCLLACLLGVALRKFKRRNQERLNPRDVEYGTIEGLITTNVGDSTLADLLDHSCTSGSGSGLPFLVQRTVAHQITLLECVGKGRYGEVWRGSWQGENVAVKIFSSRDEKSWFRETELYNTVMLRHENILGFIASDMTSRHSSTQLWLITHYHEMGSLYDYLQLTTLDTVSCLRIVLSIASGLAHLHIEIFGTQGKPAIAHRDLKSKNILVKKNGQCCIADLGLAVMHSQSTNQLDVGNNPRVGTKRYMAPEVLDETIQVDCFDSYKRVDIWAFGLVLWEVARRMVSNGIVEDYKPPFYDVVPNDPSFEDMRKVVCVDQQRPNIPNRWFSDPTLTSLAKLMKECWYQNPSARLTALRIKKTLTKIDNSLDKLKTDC
Method in brief: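 Stable HEK293 cells expressing C-terminally FLAG-tagged human ALK2 R206H (lentiviral, blasticidin-selected) were treated with compounds in 10-point, 3-fold dilutions from 10 μM or 1 μM top, in duplicate. Smad1 Ser463/Ser465 phosphorylation was read by AlphaLISA.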

[1] = target: T2, ALK2 R206H (GST-tagged mutant ALK2) (Homo sapiens, UniProt Q04771, R206H); test: ALK binding assay (LANTHASCREEN TR-FRET competitive binding, displacement of Kinase Tracer 178); settings: ALK2 R206H, LANTHASCREEN TR-FRET competitive binding; read-out: Binding Assay (IC50)
T2 construct: purchased Carna Bioscience or ThermoFisher 09-148 or PV6232
T2 sequence (Q04771 21-509 R206H): T1 sequence (Q04771 21-509 R206H)

Row | Structure (SMILES) | IC50 (human ALK2 R206H) | IC50 [1]
1 | CC(C)N1CCC[C@@H](c2ccc(-c3cc4c(N5CCN(C(=O)C6CC6)CC5)ccnn4c3)cc2)C1 [Compound 248] | < 100 nM | < 10 nM
2 | CC(C)N1CCC(c2ccc(-c3cc4c(N5CCN(C(=O)C6CCC6)CC5)ccnn4c3)cc2)C1 (centres unmarked) [Compound 249] | < 100 nM | < 10 nM
3 | CCN1CCC(c2ccc(-c3cc4c(N5CCN(C(=O)C6CCC6)CC5)ccnn4c3)cc2)CC1 [Compound 250] | < 100 nM | < 10 nM
4 | CCN1CCC(c2ccc(-c3cc4c(N5CCN(C(=O)[C@H]6CC6(C)C)CC5)ccnn4c3)cc2)C1 (some centres unmarked) [Compound 251] | < 100 nM | < 10 nM
5 | CCN1CCC(c2ccc(-c3cc4c(N5CCN(C(=O)C6CC6)[C@H](C)C5)ccnn4c3)cc2)CC1 [Compound 252] | 100 to 500 nM | < 10 nM
6 | CC(C)N1CC[C@H](c2ccc(-c3cc4c(N5CCN(C(=O)C6CC6)[C@H](C)C5)ccnn4c3)cc2)C1 [Compound 253] | 100 to 500 nM | < 10 nM
7 | CC(C)N1CC[C@@H](c2ccc(-c3cc4c(N5CCN(C(=O)C6CC6)[C@H](C)C5)ccnn4c3)cc2)C1 [Compound 254] | < 100 nM | < 10 nM
8 | Cc1cc([C@@H]2CCN(C(C)C)C2)ccc1-c1cc2c(N3CCN(C(=O)C4CC4)CC3)ccnn2c1 [Compound 255] | 100 to 500 nM | < 10 nM
9 | Cc1cc([C@H]2CCN(C(C)C)C2)ccc1-c1cc2c(N3CCN(C(=O)C4CC4)CC3)ccnn2c1 [Compound 256] | 100 to 500 nM | < 10 nM
10 | CC(C)N1CCCCC1c1ccc(-c2cc3c(N4CCN(C(=O)C5CC5)CC4)ccnn3c2)cc1 (centres unmarked) [Compound 257] | < 100 nM | < 10 nM
11 | N#C[C@H]1C[C@@H]1C(=O)N1CCN(c2ccnn3cc(-c4ccc(C5(F)CCCNC5)cc4)cc23)CC1 (some centres unmarked) [Compound 258] | < 100 nM | < 10 nM
12 | CCN1CCN(c2ccc(-c3cc4c(N5CCN(C(=O)C6CC6)CC5)ccnn4c3)cc2)C(=O)C1 [Compound 259] | > 500 nM | 10 to 50 nM
13 | O=C(C1CC1)N1CCN(c2ccnn3cc(-c4ccc(N5CCNC6(COC6)C5)cc4)cc23)CC1 [Compound 260, (4-(6-(4-(2-oxa-5,8-diazaspiro[3.5]nonan-8-yl)phenyl)pyrrolo[1,2-b]pyridazin-4-yl)piperazin-1-yl)(cyclopropyl)methanone] | 100 to 500 nM | < 10 nM
14 | CC(C)N1CCN(c2ccc(-c3cc4c(N5CCN(C(=O)C6CC6)CC5)ccnn4c3)cc2)CC1 [Compound 261] | < 100 nM | < 10 nM
15 | CCN1CCN(c2ccc(-c3cc4c(N5CCN(C(=O)C6CCC6)CC5)ccnn4c3)cc2)CC1 [Compound 262] | 100 to 500 nM | < 10 nM
16 | CCN1CCN(c2ccc(-c3cc4c(N5CCN(C(=O)C6CC6)C[C@@H]5C)ccnn4c3)cc2)CC1 [Compound 263] | 100 to 500 nM | < 10 nM
17 | CCN1CCN(c2ccc(-c3cc4c(N5CCN(C(=O)C6CC6)CC5)ccnn4c3)cc2)C[C@H]1C [Compound 264] | 100 to 500 nM | < 10 nM
18 | CCN1CCN(c2ccc(-c3cc4c(N5CCN(C(=O)C6CC6)CC5)ccnn4c3)cc2)C[C@@H]1C [Compound 265] | < 100 nM | < 10 nM
19 | CC(C)N1CCC(c2ccc(-c3cc4c(N5CCN(C(=O)C6CC6)CC5)ccnn4c3)nc2)CC1 [Compound 266] | < 100 nM | < 10 nM
20 | CC(C)N1CCC(c2ccc(-c3cc4c(N5CCN(C(=O)C6CC6)CC5)ccnn4c3)cn2)CC1 [Compound 267] | < 100 nM | < 10 nM
21 | CCN1CCC(Oc2ccc(-c3cc4c(N5CCN(C(=O)C6CC6)CC5)ccnn4c3)cc2)CC1 [Compound 268] | 100 to 500 nM | 10 to 50 nM
22 | CCN1CCCC(Oc2ccc(-c3cc4c(N5CCN(C(=O)C6CC6)CC5)ccnn4c3)cc2)C1 (centres unmarked) [Compound 269] | < 100 nM | < 10 nM
23 | CCN1CCC(COc2ccc(-c3cc4c(N5CCN(C(=O)C6CC6)CC5)ccnn4c3)cc2)C1 (centres unmarked) [Compound 270] | < 100 nM | < 10 nM
24 | CC(C)N1CCC(O)(c2ccc(-c3cc4c(N5CCN(C(=O)C6CC6)CC5)ccnn4c3)cc2)C1 (centres unmarked) [Compound 271] | 100 to 500 nM | < 10 nM
25 | CCN1CCN(c2ccc(-c3cc4c(N5CCN(C(=O)N6CCC6)CC5)ccnn4c3)cc2)CC1 [Compound 272] | 100 to 500 nM | 10 to 50 nM

Row | Structure (SMILES) | IC50 (human ALK2 R206H) | IC50 [1]
26 | O=C(C1CC1)N1CCN(c2ccnn3cc(-c4ccc(N5CCN(CCO)CC5)cc4)cc23)CC1 [Compound 274, cyclopropyl(4-(6-(4-(4-(2-hydroxyethyl)piperazin-1-yl)phenyl)pyrrolo[1,2-b]pyridazin-4-yl)piperazin-1-yl)methanone] | 100 to 500 nM | < 10 nM
27 | CCNC(=O)N1CCN(c2ccnn3cc(-c4ccc(C5CCN(C(C)C)CC5)cc4)cc23)CC1 [Compound 275, N-ethyl-4-(6-(4-(1-isopropylpiperidin-4-yl)phenyl)pyrrolo[1,2-b]pyridazin-4-yl)piperazine-1-carboxamide] | < 100 nM | < 10 nM
28 | CCNC(=O)N1CCN(c2ccnn3cc(-c4ccc([C@@H]5CCCN(C(C)C)C5)cc4)cc23)CC1 [Compound 276] | < 100 nM | < 10 nM
29 | CCNC(=O)N1CCN(c2ccnn3cc(-c4ccc([C@H]5CCCN(C(C)C)C5)cc4)cc23)CC1 [Compound 277] | < 100 nM | < 10 nM
30 | CCN1CCC(c2ccc(-c3cc4c(N5CCN(C(=O)C6CC6)CC5)ccnn4c3)cc2)C(F)C1 (centres unmarked) [Compound 278] | < 100 nM | < 10 nM
31 | CCN1CC[C@H](c2ccc(-c3cc4c(N5CCN(C(=O)C6CC6)CC5)ccnn4c3)cc2)C(F)C1 (some centres unmarked) [Compound 279] | 100 to 500 nM | 10 to 50 nM
32 | CCN1CC[C@@H](c2ccc(-c3cc4c(N5CCN(C(=O)C6CC6)CC5)ccnn4c3)cc2)C(F)C1 (some centres unmarked) [Compound 280] | 100 to 500 nM | 10 to 50 nM
33 | CCN1CCC(c2ccc(-c3cc4c(N5CCN(C(=O)[C@H]6C[C@H]6F)CC5)ccnn4c3)cc2)CC1 [Compound 281] | < 100 nM | < 10 nM
34 | CC(C)N1CC(F)C(c2ccc(-c3cc4c(N5CCN(C(=O)C6CC6)CC5)ccnn4c3)cc2)C1 (centres unmarked) [Compound 282] | < 100 nM | < 10 nM
35 | CC(C)N1CC[C@@H](c2ccc(-c3cc4c(N5CCN(C(=O)C6CC6)CC5)ccnn4c3)cc2F)C1 [Compound 283] | 100 to 500 nM | < 10 nM
36 | CC(C)N1CC[C@H](c2ccc(-c3cc4c(N5CCN(C(=O)C6CC6)CC5)ccnn4c3)cc2F)C1 [Compound 284] | < 100 nM | < 10 nM
37 | CCN1CCC(c2ccc(-c3cc4c(N5CCN(C(=O)OC(C)C)CC5)ccnn4c3)cc2)CC1 [Compound 285] | < 100 nM | < 10 nM
38 | CCOC(=O)N1CCN(c2ccnn3cc(-c4ccc(C5CCN(CC)CC5)cc4)cc23)C[C@H]1C [Compound 286] | 100 to 500 nM | < 10 nM
39 | CCOC(=O)N1CCN(c2ccnn3cc(-c4ccc([C@@H]5CCCN(C(C)C)C5)cc4)cc23)CC1 [Compound 287] | < 100 nM | < 10 nM
40 | CCOC(=O)N1CCN(c2ccnn3cc(-c4ccc([C@H]5CCCN(C(C)C)C5)cc4)cc23)CC1 [Compound 288] | < 100 nM | < 10 nM
41 | CCNC(=O)N1CCN(c2ccnn3cc(-c4ccc(N5CCN(C(C)C)CC5)cc4)cc23)CC1 [Compound 289] | < 100 nM | < 10 nM
42 | CCNC(=O)N1CCN(c2ccnn3cc(-c4ccc(C5CCN(C(C)C)CC5)cn4)cc23)CC1 [Compound 290] | < 100 nM | < 10 nM
43 | CCN1CCN(c2ccc(-c3cc4c(N5CCN(C(=O)[C@@H]6C[C@H]6F)CC5)ccnn4c3)cc2)CC1 [Compound 292] | < 100 nM | < 10 nM
44 | CCN1CCN(c2ccc(-c3cc4c(N5CCN(C(=O)[C@H]6C[C@H]6F)CC5)ccnn4c3)cc2)CC1 [Compound 293] | < 100 nM | < 10 nM
45 | CCOC(=O)N1CCN(c2ccnn3cc(-c4ccc(N5CCN(C(C)C)CC5)cc4)cc23)CC1 [Compound 295] | < 100 nM | < 10 nM
46 | O=C(C1CC(F)(F)C1)N1CCN(c2ccnn3cc(-c4ccc(N5CCNCC5)cc4)cc23)CC1 [Compound 296] | 100 to 500 nM | < 10 nM
47 | O=C(C1CC1)N1CCN(c2ccnn3cc(-c4ccc(N5CCNCC5C(F)F)cc4)cc23)CC1 (centres unmarked) [Compound 297] | < 100 nM | < 10 nM
48 | CC(C)N1CC[C@@H](c2ccc(-c3cc4c(N5CCN(C(=O)[C@H]6C[C@@H]6C#N)CC5)ccnn4c3)cc2)C1 [Compound 298] | < 100 nM | < 10 nM
49 | CCN1CCC(c2ccc(-c3cc4c(N5CCN(C(=O)N6CC(C#N)C6)CC5)ccnn4c3)cc2)C1 (centres unmarked) [Compound 300, 1-(4-(6-(4-(1-ethylpyrrolidin-3-yl)phenyl)pyrrolo[1,2-b]pyridazin-4-yl)piperazine-1-carbonyl)azetidine-3-carbonitrile] | < 100 nM | < 10 nM
